Experimental data taken from article PMC7939384, “In crystallo screening for proline analog inhibitors of the proline cycle enzyme PYCR1” (The Journal of Biological Chemistry, 2021).
“And” between values parts separate entries of the source, which are not always exact repeats. Identical values can stand only once.

What was measured:
human PYCR1 [1] = molecular target: T1, human PYCR1 (Homo sapiens, UniProt P32322); assay: biochemical; details: for Ki: competitive with P5C, NADH fixed 175 μM; for kcat: kcat for L-P5C at fixed NADH 175 μM, global fit of the data set with this analog
T1 sequence (P32322 1-300): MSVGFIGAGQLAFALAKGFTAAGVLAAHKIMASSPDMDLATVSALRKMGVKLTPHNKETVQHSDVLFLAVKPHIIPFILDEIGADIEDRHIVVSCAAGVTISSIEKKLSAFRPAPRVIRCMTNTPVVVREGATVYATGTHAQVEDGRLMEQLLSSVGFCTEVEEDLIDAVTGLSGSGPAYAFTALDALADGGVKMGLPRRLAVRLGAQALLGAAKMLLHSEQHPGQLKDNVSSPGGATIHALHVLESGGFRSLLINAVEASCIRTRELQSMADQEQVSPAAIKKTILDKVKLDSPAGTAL
Protocol: (§1) Over two dozen proline analogs (Fig. 2) were screened using electron density from X-ray crystallography as the readout for binding to human PYCR1. […] Because the compounds bind in the P5C/proline site, the mechanism of inhibition was assumed to be competitive with P5C. Therefore, steady-state kinetic measurements were performed with L-P5C as the variable substrate (0-1000 μM) and NADH fixed (175 μM) (Fig. 3). For each compound, the data were fit globally to a competitive inhibition model (Equation 1) to obtain an inhibition constant, Ki.
B, THFA. C, CPC. D, T4C. E, T2C. F, NFLP. The data were measured in 50 mM Tris (pH 7.5) with 1 mM EDTA disodium salt while holding NADH fixed at 175 μM and varying D,L-P5C (0–2000 μM). The concentration of the substrate L-P5C was considered to be half the total D,L-P5C concentration added to the assays. Curves represent global fits of the data to a competitive inhibition model showing initial velocity in units of µM [NAD^+] s^−1 as a function of L-P5C concentration (µM).
A C-terminal truncation variant of human PYCR1, which includes residues 1–300 of the full-length 319-residue enzyme, was used for kinetics and X-ray crystallography ([18]). PYCR1 was overexpressed in Escherichia coli BL21 (DE3) competent cells and purified using methods similar to those previously reported ([18]). Harvested cells were lysed via sonication in a mixture containing DNase I, lysozyme, and 0.2 mM phenylmethylsulfonyl fluoride protease inhibitor, and then the insoluble material was removed via centrifugation at 16,000 rpm for 1 h at 4°C. The resulting lysate was purified by gravity-flow chromatography on a column containing Ni^2+–nitrilotriacetic acid resin (Qiagen) pre-equilibrated with binding buffer consisting of 50 mM HEPES, 300 mM NaCl, 10 mM imidazole, and 5% (w/v) glycerol at pH 7.8 (buffer A). The column was washed with buffer A supplemented with 30 mM imidazole, and then the bound protein was eluted with buffer A supplemented with 300 mM imidazole. Elution fractions containing PYCR1 were identified by SDS-PAGE and prepared for further purification by size-exclusion chromatography by dialyzing into 300 mM NaCl, 2% (w/v) glycerol, and 50 mM HEPES at pH 7.5. Size-exclusion chromatography was performed on a HiLoad 16/600 Superdex 200 column equilibrated with 50 mM HEPES, pH 7.8, 300 mM NaCl, and 5% (w/v) glycerol. Purified PYCR1 was concentrated to 8 mg/ml and stored at 4°C for subsequent crystallization trials.
Kinetic measurements were performed in a BioTek Epoch 2 microplate spectrophotometer using Corning 96-well UV-transparent microplates. Activity assays were performed by monitoring the consumption of NADH at 340 nm (ε340 = 6220 M^−1 cm^−1) using P5C as the substrate. D,L-P5C was synthesized as described previously ([45]), quantified using o-aminobenzaldehyde (o-AB), and stored in 1 M HCl at 4°C. Neutralization of D,L-P5C to pH 7.5 was performed immediately prior to assays using 1 M Tris (pH 7.5) and 6 M NaOH. The concentration of the substrate L-P5C was assumed to be half the total D,L-P5C concentration added to the assays.
The following microplate protocol was employed. Substrate mixtures containing P5C, NADH, EDTA, and Tris buffer were prepared in a deep well block for each P5C concentration. Mixtures containing enzyme and various concentrations of the inhibitor were prepared in microcentrifuge tubes and incubated on ice in buffer containing 50 mM HEPES pH 7.8, 300 mM NaCl, and 5% (w/v) glycerol. The final concentration of PYCR1 in the assay was 6.25 nM. Twenty μl of the enzyme-analog mixture was added to microplate wells using a single-channel pipette, and then the reaction was initiated by addition of 180 μl of the substrate mixtures using a multi-channel pipettor. The reaction traces were followed for 35 min.

human PYCR1 [2] = molecular target: T1, human PYCR1; assay: In crystallo screening: electron density as readout for binding (crystal soaking); parameters: includes residues 1–300 of the full-length 319-residue enzyme; inferred from the Ni-NTA purification; made in house; host or cells: Escherichia coli BL21 (DE3); details: apo crystals soaked with 25–500 mM of the proline analog
Protocol: as §1
06594), D,L-thiazolidine-2-carboxylate (Sigma-Aldrich no. 467995), L-thiazolidine-4-carboxylate (Sigma-Aldrich no. T27502), 1,3-thiazolidine-2,4-dicarboxylate (Sigma-Aldrich no. CDS000186), dimethyl 1,3-thiazolidine-2,4-dicarboxylate (Sigma-Aldrich no. […] 287067), L-4-hydroxyproline methyl ester (hydrochloride) (Sigma-Aldrich no. 30681), cis-4-hydroxy-D-proline methyl ester (hydrochloride) (Sigma-Aldrich no. […] 441562), L-(+)-mandelic acid (Sigma-Aldrich no. 63460), sodium-L-lactate (Sigma-Aldrich no. 71718), D-cycloserine (Sigma-Aldrich no. C6880). The proline analogs were added to apo crystals during cryoprotection by soaking the crystals in the reservoir solution supplemented with cryoprotectant (PEG 200 for the PEG 3350 form; glycerol for the NaCl form) and then in the same cryobuffer supplemented with 25–500 mM of the proline analog. Following equilibration, the crystals were harvested and rapidly plunged into liquid nitrogen.
The complex of PYCR1 with THFA was obtained by soaking a C2 crystal (NaCl form) for 15 min in a cryo-buffer consisting of the reservoir solution (3 M NaCl and 0.1 M HEPES at pH 7.5–8.0) supplemented with 30% glycerol and 50 mM THFA, followed by flash-cooling in liquid nitrogen. Crystals of the NFLP complex were prepared by soaking P2_12_12 crystals in the reservoir solution (250 mM Li2SO4, 19% (w/v) PEG 3350, 0.1 M HEPES, pH 7.5) supplemented with 20% (v/v) PEG 200 and 100 mM NFLP. The complexes with L-T2C and L-T4C were prepared similarly, except the Li2SO4 concentration was reduced to 25 mM and 50 mM of either L-T4C or D,L-T2C was included.

PYCR1 = tested on: PYCR1; parameters: method as in PMID 31362921; details: reported IC50 against PYCR1; cited from earlier work
[3] = Ki, 50 mM Tris pH 7.5, global fit

| Compound | Ki (human PYCR1 [1]; Ki (estimated), rounded values) | Ki (human PYCR1 [1]; [3]) [µM] | kcat (human PYCR1 [1]) [s⁻¹] | electron density evidence for binding (in words) (human PYCR1 [2]) | IC50 (PYCR1) [µM] | inhibition of PYCR1 (in words) (human PYCR1 [1]) |
| --- | --- | --- | --- | --- | --- | --- |
| O=C(O)[C@@H]1CSCN1 [L-T4C, L-thiazolidine-4-carboxylate] | ~600 µM | 598 ± 39 | 54 ± 2 | Electron density evidence for binding was observed |  |  |
| O=C(O)C1NCCS1 [L-T2C, L-thiazolidine-2-carboxylate] | ~400 µM | 438 ± 29 | 37 ± 1 | Electron density evidence for binding was observed |  |  |
| C#CCN(C)Cc1ccccc1 [pargyline] |  |  |  |  | 200 |  |
| CC(=O)N1CCC[C@H]1C(=O)O [N-acetyl L-proline] |  |  |  |  |  | did not inhibit PYCR1 |
| O=C(O)C1CCCC1 [CPC, cyclopentanecarboxylate] | > 1000 µM and 1000 µM | 1190 ± 61 | 35 ± 1 |  |  |  |
| O=C(O)[C@@H]1CCCO1 [THFA, (S)-(−)-tetrahydro-2-furoic acid] | > 1000 µM and 2000 µM | 2250 ± 121 | 69 ± 1 | Electron density evidence for binding was observed |  | only negligibly inhibits PYCR1 |
